This is an account of results in patent US20020107197A1, “Ligands for G protein coupled receptors and methods of using them” (priority 2000, published 2002).

Bridges are numbered along the chain shown (N, C = ends). Where no end group is shown, it is not given here.

Assay [1] concerns the target T1, GPR4 (Homo sapiens, UniProt P46093).
T1 construct: were used to generate full length GPR4, which was digested with EcoRI and Xba I and cloned into the pBs3HA vector; expressed in transfected cells
The experiment in a line: ERK MAP kinase activation (phospho-ERK Western blot) in GPR4-infected Swiss 3T3 cells. It is filed as cell-based. The note with it: GPR4-ires-GFP vs GFP Swiss 3T3 cells; SPC and LPC 100 nM. On the procedure: MAP kinases are key signaling intermediates of DNA synthesis and cell proliferation. Swiss 3T3 cells were infected with MSCV GPR4-ires-GFP or MSCV ires-GFP, and subsequently cells sorted by FACS for positive expression of GFP as described previously (Kabarowski et al. (2000) Proc Natl Acad Sci USA. 97, 12109-12114). Cells were plated in 6-well plates in DMEM containing 5% FBS, serum-starved overnight, and then treated lipids in DMEM for the indicated times. Cells were lysed on ice in RIPA buffer containing 50 mM Tris-HCl, pH 7.5, 1% Nonidet P-40, 0.5% deoxycholate,0.1% SDS, 150 mM NaCl, 2 mM EGTA, 25 mM sodium fluoride, 1 mM sodium orthovanadate, and 1× protease inhibitors (Sigma P8340). Lysates containing equal amounts of protein were separated on 10% SDS-polyacrylamide gels and transferred onto nitrocellulose membranes. Antibodies against phosphorylated ERK1/2 (Cell Signaling Technologies; Beverly, Mass.) were used to probe the membrane and the ECL system (Amersham) was used for detection. To normalize the amounts of protein loaded in each lane, membranes were stripped and re-probed with antibodies against total ERK (Cell Signaling Technologies). In some experiments, cells were pretreated with 100 ng/ml PTX for 12-16 h prior to SPC and LPC stimulation.
For orientation: A western blot detects proteins with antibodies after separation by electrophoresis.

The target in assay [2] is T2, TDAG8 (Homo sapiens, UniProt Q8IYL9).
T2 construct: expressed in transfected cells
T2 sequence (Q8IYL9 whole entry): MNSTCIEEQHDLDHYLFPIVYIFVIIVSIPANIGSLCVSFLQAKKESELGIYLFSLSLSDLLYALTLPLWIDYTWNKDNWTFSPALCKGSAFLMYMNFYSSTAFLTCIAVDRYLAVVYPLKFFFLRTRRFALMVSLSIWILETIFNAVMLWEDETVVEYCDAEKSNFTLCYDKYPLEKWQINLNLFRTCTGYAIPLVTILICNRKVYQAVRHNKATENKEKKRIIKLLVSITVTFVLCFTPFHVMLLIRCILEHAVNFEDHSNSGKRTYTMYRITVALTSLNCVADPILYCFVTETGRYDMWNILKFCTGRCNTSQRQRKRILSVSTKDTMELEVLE
The assay can be described thus: SRE luciferase reporter in TDAG8-transfected HEK293 cells. It is filed as cell-based. The note with it: TDAG8 cotransfection. Background: In a reporter assay the amount or activity of a reporter protein is the signal.

In assay [3] the test system is vector-transfected HEK293 cells. The experiment in a line: SRE luciferase reporter in vector-transfected HEK293 cells. It is filed as cell-based, human. Here is the method:
(§1) The serum-response element (SRE) reporter system is a sensitive assay for receptors of lipid factors (An et al. (1998) J Biol Chem 273, 7906-7910; An et al. (1999) Mol Pharmacol 55, 787-794). The SRE reporter system used herein (pSRE-Luc) was a gift from Dr. Songzhu An (UCSF), or may be purchased from Stratagene (La Jolla, Calif.). Both systems give identical results. HEK293 and HEK293GPR4 cells were cultured in RPMI1640 with 10% FBS in 10 cm dishes to ˜85% confluence. To the cells in each dish, pSRE-Luc (10 μg) was transfected in the presence of 60 μl LipofectAMINE reagent. Cells were seeded in 96-well plates 16 h after transfection, incubated for another 24 h in RPMI1640 with 10% FBS, and starved in serum-free medium for 16 h. SPC (dissolved in PBS to 10 mM) and other lipids (LPCs were dissolved in 70% ethanol. Other lipids were dissolved in PBS, 70-95% ethanol, or 100% MeOH) were diluted in serum free RPMI 1640 and added to the cells, followed by a 10 h incubation. Luciferase activity was measured in Microlite™ 1 plates (DYNEX Technologies, Inc., Virginia) using 60 μl of cell lysate and 20 μl luciferase substrate. PTX (100 ng/ml) was added during the 16 h serum starvation period and pcDNA1-C3 (encoding the C3-exoenzyme, 2 μg) was co-transfected with pSRE-Luc (10 μg). All experiments were performed in quadruplicate and were repeated at least three times. The Student's t test was performed using the GraphPad Instat software (San Diego, Calif.). p<0.05 was considered to be statistically significant.

Assay [4] deals with T1, GPR4. The assay can be described thus: Radioligand binding to homogenates of GPR4-transfected CHO cells. The note with it: cold competitors, GPR4-transfected CHO cell homogenates. On the procedure:
(§2) To characterize the binding of SPC and LPC to GPR4 and TDAG8, we conducted radioligand binding assays. CHO cells were chosen for GPR4 binding assays, since HEK293 cells express relatively high levels of endogenous GPR4. CHO cells stably transfected with empty vector or GPR4 were serum starved for 20 h, then collected after exposure to 2 mM EDTA in PBS. The pelleted cells were stored at −80° C. until use. Binding assays were performed essentially as described previously (Xu et al. (2000) Nat Cell Biol 2, 261-267), except binding was performed at 4° C. Briefly, frozen cells (10^6 cells/ml) were homogenized in a binding buffer. Assays were performed in 96-well plates in triplicate with 100 μl cell homogenate (equivalent to 10^5 cells/well). Different amounts of [^3H]SPC or [^3H]16:0-LPC were added to the cell homogenates in 50 μl of binding buffer, in the presence or absence of cold SPC or 16:0-LPC, or other competitors. The plates were incubated at 4° C. for 120 min, unless otherwise indicated. Cell-bound [^3H]SPC or [^3H]LPC was collected onto a filter (Printed Filtermat A, Wallac, Gaithersburg, Md.) using an automated cell harvester (HARVESTER 96, Tomtec, Orange, Conn.). Specific binding was calculated by subtraction of nonspecific binding (binding detected in the presence of 100-fold excess unlabeled SPC or 16:0-LPC) from the total binding.
Cell homogenates were used for binding assays. Binding was conducted at 4° C. for 120 min or as indicated. [^3H]SPC and [^3H]16:0-LPC specifically bound to cell homogenates from GPR4-transfected CHO cells in a time-dependent manner and reached equilibrium after 60 min incubation at 4° C. […] The maximum binding capacities for SPC and 16:0-LPC were 996 fmole/10^5 cells for SPC and 1,528 fmole/10^5 cells for 16:0-LPC. […] Binding assays using [^3H]18:0-LPC gave similar results. We also tested the four glycosphingolipids, Psy, Glu-Sph, Gal-Cer, and Lac-Cer, for their ability to compete for the binding of [^3H]SPC and [^3H]16:0-LPC to GPR4.

Assay [5] concerns the target T1, GPR4. The assay can be described thus: Cell migration in modified Boyden chamber, GPR4-ires-GFP vs GFP Swiss 3T3 cells. The following applies: for chemokinetic assay: cell motility vs controls: lipid 100 nM in both upper and lower chambers, GFP or GFP-GPR4 Swiss 3T3 cells. Format: cell-based. Here is the method: Chemotaxis was measured in a modified Boyden chamber assay. Briefly, different lipids were added to the lower chambers. GPR4-ires-GFP- and GFP-Swiss 3T3 cells were serum starved for 4 h, trypsinized, and seeded in the upper chambers of Boyden-transwell plates (Corning Inc., Corning, N.Y.). The chambers were incubated for 6 to 8 h. The number of cells that migrated to the lower face of the membrane was counted in 4 random fields. Data are represented as the average ±SD of three independent experiments. For the chemokinetic assay, the same concentrations of lipids were added to both the upper and lower chambers. For Rho inhibition studies, C3-exoenxyme was transiently transfected into Swiss 3T3 cells and cell migration assays were performed 48 hours later.

Assay [6] deals with T1, GPR4. The experiment in a line: SRE luciferase reporter in GPR4-transfected HEK293 cells. The following applies: GPR4 cotransfection. Format: cell-based. On the procedure:
as §1

Assay [7] concerns the target T2, TDAG8. The experiment in a line: TDAG8 receptor internalization. Format: cell-based. An excerpt: G protein coupled receptors undergo agonist-dependent desensitization and internalization.
Assay [8] addresses T2, TDAG8. The experiment in a line: Binding of phospholipids to TDAG8. On the procedure:
as §2
Using functional and binding assays, we have identified the ligands for TDAG8.

The subject of the next assay is HEY ovarian cancer cells. The assay can be described thus: DNA synthesis / growth of HEY ovarian cancer cells with SPC and phage preparations. The following applies: phage mixed with SPC, 30 min incubation. It is filed as cell-based, human. Here is the method:
To determine if these selected phage clones were capable of blocking a biological effect of SPC, we mixed phage preparations with SPC. After a 30 min incubation, this mixture was added to HEY cells and its effect on SPC-induced cell proliferation was tested. If a phage clone was carrying a specific sequence which binds to SPC, the addition of the phage to SPC could block the effect of SPC on HEY cells.

Assay [9] has as its target T1, GPR4. The experiment in a line: Internalization of GPR4-GFP in HEK293 cells (confocal microscopy). Format: cell-based. The note with it: 1 μM lipid, 37° C., GPR4-GFP HEK293 cells. Here is the method: pGPR4-GFP stably expressing HEK293 cells were cultured in 6 cm tissue culture dishes in RPMI1640 with 10% FBS. After 16-24 h serum starvation, cells were treated with different lipids at 37° C. for 2 h. Cells were washed with cold PBS and fixed with 4% paraformaldehyde in PBS. The subcellular localization of GPR4-GFP protein was visualized under a Leica TV confocal fluorescence microscope with a 63× oil immersion lens (Wetzler, Heidelberg, Germany). The excitation and emission wavelengths were 488 nm and 515-540 nm, respectively.
G protein coupled receptors undergo agonist-dependent desensitization and internalization. When HEK293 cells are transfected with the pEGFP-N1 vector, GFP protein is expressed in the cytosol of the cells. The GPR4-GFP and TDAG8-GFP fusion proteins, on the other hand, was expressed only on the plasma membrane.

T1 sequence (P46093 whole entry): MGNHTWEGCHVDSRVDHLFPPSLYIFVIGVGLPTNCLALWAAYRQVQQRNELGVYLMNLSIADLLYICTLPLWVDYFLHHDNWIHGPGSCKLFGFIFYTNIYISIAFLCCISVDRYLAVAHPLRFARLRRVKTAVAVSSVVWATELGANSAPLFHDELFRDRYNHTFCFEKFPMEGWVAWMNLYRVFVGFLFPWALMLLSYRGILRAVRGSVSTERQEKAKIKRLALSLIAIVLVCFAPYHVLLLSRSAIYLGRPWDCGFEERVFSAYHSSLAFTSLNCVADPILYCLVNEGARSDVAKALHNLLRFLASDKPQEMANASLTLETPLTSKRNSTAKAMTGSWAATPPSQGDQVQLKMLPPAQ

As for `CCCCCCCCCCCCC/C=C/[C@@H](O)[C@@H](N)COP(=O)(O)O` [S1P, sphingosine-1-phosphate], the “GPR4-dependent ERK activation (in words)” value at GPR4 [1] is reported as “activation was independent of GPR4 expression”. In addition, the “transcriptional activation of SRE (in words)” value (from here on “transcriptional activation”) is recorded as “not altered” at TDAG8 [2], “induced significant transcriptional activation of SRE” in assay [3] and “not altered” at GPR4 [6]. In addition, the “competition for binding of [3H]SPC and [3H]16:0-LPC to GPR4” value (“competition for binding” below) at GPR4 [4] was “not”. Also, on GPR4 [5], the “cell migration in GPR4- vs. vector-transfected cells (in words)” value is reported as “did not alter cell migration”. In addition, the “chemokinetic assay: cell motility vs controls” value on GPR4 [5] is recorded as “slightly inhibited”.
Regarding `CCCCCCCCCCCCCCCCOC[C@@H](O)COP(=O)([O-])OCC[N+](C)(C)C` [lyso-PAF], the TDAG8 receptor internalization result on TDAG8 [7] is “induced TDAG8 receptor internalization”. Moreover, the “competition for binding” value on GPR4 [4] was “not”. Besides, at GPR4 [6], the “transcriptional activation” value is “none of them induced significant transcriptional activation of SRE”. At TDAG8 [8], the “binding to TDAG8” value was “able to bind to TDAG8”.
As to “Cys-His-Thr-Gln-Ala-Asp-Ser-Cys (CHTQADSC; disulfide 1-8) [#414]”, the “effect of phage on the growth inhibitory effect of SPC” value in the assay with HEY ovarian cancer cells is “able to inhibit the growth inhibitory effect of SPC on HEY cells”; in the assay on HEY ovarian cancer cells (listed as clone 414), “inverted the growth inhibitory effect of SPC”; with HEY ovarian cancer cells (listed as phage 414) it was “blocked the growth inhibitory effect of SPC on DNA synthesis”.
In the case of lysophosphatidic acid [LPA], the “transcriptional activation” value at TDAG8 [2] is listed as “not altered”; in assay [3], “induced significant transcriptional activation of SRE”; on GPR4 [6] it was “not altered”. The “competition for binding” value at GPR4 [4] was “not”. The “cell migration in GPR4- vs. vector-transfected cells (in words)” value on GPR4 [5] is recorded as “did not alter cell migration”. In addition, the “chemokinetic assay: cell motility vs controls” value at GPR4 [5] is listed as “did not show a significant effect”.
As for platelet activating factor [PAF], the “GPR4-dependent ERK activation (in words)” value on GPR4 [1] is on record as “activation was independent of GPR4 expression”. The TDAG8 receptor internalization result on TDAG8 [7] is “induced TDAG8 receptor internalization”. In addition, the “internalization of GPR4” value at GPR4 [9] is recorded as “not”. On GPR4 [4], the “competition for binding” value is given as “not”. At GPR4 [5], the “cell migration in GPR4- vs. vector-transfected cells (in words)” value is recorded as “did not alter cell migration” and the “chemokinetic assay: cell motility vs controls” value was “slightly enhanced”. Moreover, on GPR4 [6], the “transcriptional activation” value is listed as “none of them induced significant transcriptional activation of SRE”. Moreover, the “binding to TDAG8” value on TDAG8 [8] is reported as “able to bind to TDAG8”.
